Experimental data published in patent publication US20260337190A1, “CRYSTAL FORM OF PYRIDINOPYRIMIDINONE COMPOUND, ACID SALT THEREOF, CRYSTAL FORM OF ACID SALT THEREOF, AND USE” (Wuhan Humanwell Innovative Drug Research and Development …, priority 2022, published 2026).
Where a name gives a salt, the structure may show the parent alone.

Key:
[1] = Solid state stability (25 °C/60% RH and 40 °C/75% RH, one week; XRPD and HPLC); assay type: physicochemical; conditions: for solid state stability: open condition, one week, 25 °C/60% RH and 40 °C/75% RH
Experimental: The purity test, dynamic solubility test, and stability test in the assay were measured with an Agilent 1260 high-performance liquid chromatograph, and the salt formation molar ratio of ions was tested by ion chromatography, and the analytical conditions are shown in Table 5 and Table 6.

[2] = Dynamic solubility in water, SGF, FaSSIF and FeSSIF; assay type: physicochemical; conditions: for solubility in water, SGF, FaSSIF and FeSSIF: 10 mg/mL feed, 1, 4, 24 hours; for change in crystal form after solubility test: XRPD after solubility test
Experimental: Purified water was added to complete dissolution.

[3] = Variable temperature XRPD (VT-XRPD) of crystal forms; assay type: physicochemical; conditions: for crystal form on exposure to air: exposed to air after N2 purging/heating; for crystal form on heating to 150 °C: N2, heated to 150 °C and cooled; for crystal form on N2 purging: purged with N2 for 20 minutes
Text: The XRPD pattern was collected on an X-ray powder diffraction analyzer produced by PANalytacal, and the scanning parameters are shown in Table 2.
The crystal form A of the compound of formula I of Example 2 was identified using variable temperature XRPD (VT-XRPD).

[4] = Hygroscopicity by dynamic vapor sorption (DVS); assay type: physicochemical; conditions: 25 °C
Experimental: The dynamic vapor sorption (DVS) curve was collected on DVS IntrInsic from SMS (surface measurement systems). The relative humidity at 25 °C was corrected using the deliquescence points of LiCl, Mg(NO3)2, and KCl.
Starting from 0% RH or room humidity, the test collected the mass change percentage of the sample as the humidity changed (0% RH to 95% RH) under constant temperature conditions of 25 °C The results of the DVS test and the XRPD results of the samples before and after the DVS test are shown in FIG. 113 to FIG. 122.

[5] = Human liver microsome stability; assay type: in vitro ADME; conditions: human liver microsomes, 30 min, 37 °C, NADPH; read-out: Remaining percentage of compound after incubation for 30 min
Experimental: The human liver microsome stability test was performed by incubating the compound and human liver microsomes in vitro. First, the compound to be tested was prepared into a 10 mM stock solution in DMSO solvent, and then the compound was diluted to 0.5 mM with acetonitrile. Human liver microsomes (Corning) were diluted with PBS into a microsome/buffer solution, and the solution was used to dilute 0.5 mM compound into a working solution, in which the concentration of the compound was 1.5 μM, and the concentration of human liver microsomes was 0.75 mg/mL. A deep-well plate was taken, 30 μL of the working solution was added per well, and then 15 μL of pre-heated 6 mM NADPH solution was added thereto to initiate a reaction, and the reaction was incubated at 37 °C At 0, 5, 15, 30, and 45 min of the incubation, 135 μL of acetonitrile was added to the corresponding wells to terminate the reaction. After the reaction was terminated with acetonitrile at the last time point of 45 min, the deep-well plate was vortexed for 10 min (600 rpm/min), and then centrifuged for 15 min. After centrifugation, the supernatant was collected, and added with purified water in a ratio of 1:1 to perform LC-MS/MS detection. A ratio of a peak area of compound to a peak area of internal standard at each time point was obtained, and the peak area ratios of the compound at 5, 15, 30, and 45 min were compared with the peak area ratio at 0 min to calculate the remaining percentage of the compound at each time point. T1/2 was calculated by using GraphPad 5 software.

[6] = Influence of vacuum drying on crystal form A (XRPD, HPLC purity); assay type: physicochemical; conditions: vacuum drying 60 °C/80 °C, 4 hours
Experimental: In order to evaluate the influence of the drying conditions on the crystal form A of the compound of formula I, the changes of the sample before and after vacuum drying of the crystal form A of the compound of formula I under the condition of 60 °C/80 °C for 4 hours were respectively investigated. The XRPD, ^1H NMR, and HPLC purity of the dried sample were tested.

| SMILES | HPLC results Purity (solid state stability) ([1]; 25 °C/60% RH/open, 1 week) [area %] | HPLC results Purity (solid state stability) ([1]; 40 °C/75% RH/open, 1 week) [area %] | HPLC results Purity (solid state stability) ([1]; Onset) [area %] | pH of filtrate ([2]; FaSSIF, 1 hour, 37 °C) | pH of filtrate ([2]; FaSSIF, 4 hours, 37 °C) | pH of filtrate ([2]; FaSSIF, 24 hours, 37 °C) | pH of filtrate ([2]; FeSSIF, 1 hour, 37 °C) | pH of filtrate ([2]; FeSSIF, 4 hours, 37 °C) | pH of filtrate ([2]; FeSSIF, 24 hours, 37 °C) | pH of filtrate ([2]; H2O, 1 hour, 37 °C) | pH of filtrate ([2]; H2O, 4 hours, 37 °C) | pH of filtrate ([2]; H2O, 24 hours, 37 °C) | pH of filtrate ([2]; SGF, 1 hour, 37 °C) | pH of filtrate ([2]; SGF, 4 hours, 37 °C) | pH of filtrate ([2]; SGF, 24 hours, 37 °C) | other results |
| --- | --- | --- | --- | --- | --- | --- | --- | --- | --- | --- | --- | --- | --- | --- | --- | --- |
| Cc1nc(N[C@H](C)c2cccc(S(F)(F)(F)(F)F)c2)c2cn(C3(CF)CC3)c(=O)cc2n1 [Crystal form A fumarate salt] | 98.67 | 98.70 | 98.67 |  |  |  |  |  |  |  |  |  |  |  |  |  |
| Cc1nc(N[C@H](C)c2cccc(S(F)(F)(F)(F)F)c2)c2cn(C3(CF)CC3)c(=O)cc2n1 [Crystal form A ethanesulfonate salt] | 99.15 | 99.29 | 99.10 |  |  |  |  |  |  |  |  |  |  |  |  |  |
| Cc1nc(N[C@H](C)c2cccc(S(F)(F)(F)(F)F)c2)c2cn(C3(CF)CC3)c(=O)cc2n1 [crystal form B of the compound of formula I] |  |  |  |  |  |  |  |  |  |  |  |  |  |  |  | crystal form on exposure to air [3]: transcrystallized back to the crystal form A; crystal form on heating to 100 °C and cooling to 30 °C ([3]; under N2, 100 °C, cooled to 30 °C): No crystal change was observed |
| Cc1nc(N[C@H](C)c2cccc(S(F)(F)(F)(F)F)c2)c2cn(C3(CF)CC3)c(=O)cc2n1 [Crystal form A compound formula I] | 97.13 | 97.14 | 97.06 |  |  |  |  |  |  |  |  |  |  |  |  |  |
| Cc1nc(N[C@H](C)c2cccc(S(F)(F)(F)(F)F)c2)c2cn(C3(CF)CC3)c(=O)cc2n1 [Crystal form A methanesulfonate salt] | 99.21 | 99.26 | 99.18 |  |  |  |  |  |  |  |  |  |  |  |  |  |
| Cc1nc(N[C@H](C)c2cccc(S(F)(F)(F)(F)F)c2)c2cn(C3(CF)CC3)c(=O)cc2n1 [Crystal form A of compound of formula I] |  |  |  | 6.3 | 6.3 | 6.4 | 5.1 | 5.1 | 5.1 | 5.4 | 6.0 | 5.8 | 3.2 | 3.3 | 3.2 | S: solubility ([2]; FeSSIF, 1 hour, 37 °C, 60 min): 2720 µg/mL |
| Cc1nc(N[C@H](C)c2cccc(S(F)(F)(F)(F)F)c2)c2cn(C3(CF)CC3)c(=O)cc2n1 [crystal form A of the fumarate salt of the compound of formu] |  |  |  |  |  |  |  |  |  |  |  |  |  |  |  | solubility in water, SGF, FaSSIF and FeSSIF ([2]; 37 °C): high solubility; change in crystal form after solubility test [2]: no change in crystal form is observed; moisture behaviour higher than 10% RH [4]: absorb more moisture and gain more weight with the increase of humidity; moisture behaviour lower than 10% RH [4]: rapidly dehydrate; solid state stability [1]: good stability; crystal form on heating to 150 °C [3]: No change in the crystal form was observed; crystal form on exposure to air [3]: transcrystallized back to the crystal form A of the fumarate salt; crystal form on N2 purging [3]: a peak shift was observed |
| Cc1nc(N[C@H](C)c2cccc(S(F)(F)(F)(F)F)c2)c2cn(C3(CF)CC3)c(=O)cc2n1 [Crystal form A of fumarate salt] |  |  |  | 4.8 | 4.6 | 4.3 | 4.6 | 4.8 | 4.7 | 4.2 | 4.2 | 4.1 | 1.8 | 2.0 | 1.7 | solubility at 1 h ([2]; fessif, 1 hour, 37 °C, read-out: S: solubility): 3510 µg/mL; solubility at 4 h ([2]; fessif, 4 hours, 37 °C, read-out: S: solubility): 2390 µg/mL; solubility at 24 h ([2]; fessif, 24 hours, 37 °C, read-out: S: solubility): 2180 µg/mL |
| Cc1nc(N[C@H](C)c2cccc(S(F)(F)(F)(F)F)c2)c2cn(C3(CF)CC3)c(=O)cc2n1 [Crystal form A of methanesulfonate salt] |  |  |  | 4.3 | 4.4 | 4.0 | 4.8 | 4.8 | 4.8 | 3.5 | 3.5 | 3.1 | 1.7 | 1.8 | 1.6 | S: solubility ([2]; FeSSIF, 1 hour, 37 °C, 60 min): 4040 µg/mL |
| Cc1nc(N[C@H](C)c2cccc(C(F)(F)F)c2C)c2cn(C3(CF)CC3)c(=O)cc2n1 [Control compound 1, reference compound] |  |  |  |  |  |  |  |  |  |  |  |  |  |  |  | remaining at 0.5 h [5]: 70.2% |
| Cc1nc(N[C@H](C)c2cccc(S(F)(F)(F)(F)F)c2)c2cn(C3(CF)CC3)c(=O)cc2n1 [Crystal form A of ethanesulfonate salt] |  |  |  | 4.5 | 4.2 | 3.7 | 4.8 | 4.8 | 4.7 | 2.9 | 3.1 | 2.8 | 1.6 | 1.5 | 1.5 | S: solubility ([2]; FaSSIF, 4 hours, 37 °C, 240 min): 1610 µg/mL; S: solubility ([2]; FeSSIF, 4 hours, 37 °C, 240 min): 3620 µg/mL; S: solubility ([2]; H2O, 1 hour, 37 °C, 60 min): 10060 µg/mL; S: solubility ([2]; H2O, 4 hours, 37 °C, 240 min): 9810 µg/mL; S: solubility ([2]; H2O, 24 hours, 37 °C, 1440 min): 10080 µg/mL; S: solubility ([2]; SGF, 4 hours, 37 °C, 240 min): 10130 µg/mL; S: solubility ([2]; SGF, 24 hours, 37 °C, 1440 min): 10110 µg/mL |
| Cc1nc(N[C@H](C)c2cccc(S(F)(F)(F)(F)F)c2)c2cn(C3(CF)CC3)c(=O)cc2n1 [crystal form A of the compound of formula I] |  |  |  |  |  |  |  |  |  |  |  |  |  |  |  | solubility in water, SGF, FaSSIF and FeSSIF ([2]; 37 °C): high solubility; change in crystal form after solubility test [2]: no change in crystal form is observed; moisture behaviour higher than 10% RH [4]: absorb more moisture and gain more weight with the increase of humidity; moisture behaviour lower than 10% RH [4]: rapidly dehydrate; solid state stability [1]: good stability; change in purity before and after drying (HPLC) [6]: no significant change in purity was observed; crystal form after vacuum drying ([6]; exposure to 19 °C/27% RH 10-15 min): still the crystal form A of the compound of formula I; crystal form on N2 purging [3]: transformed into a new crystal form B |
| Cc1nc(N[C@H](C)c2cccc(S(F)(F)(F)(F)F)c2)c2cn(C3(CF)CC3)c(=O)cc2n1 [crystal form A of the methanesulfonate salt of the compound ] |  |  |  |  |  |  |  |  |  |  |  |  |  |  |  | solubility in water, SGF, FaSSIF and FeSSIF ([2]; 37 °C): high solubility; hygroscopicity ([4]; 0% RH to 95% RH): slightly hygroscopic; solid state stability [1]: good stability; crystal form on heating to 150 °C [3]: no change in the crystal form was observed |

The next lines start with results.

| HPLC results Purity (solid state stability) ([1]; 25 °C/60% RH/open, 1 week) [area %] | HPLC results Purity (solid state stability) ([1]; 40 °C/75% RH/open, 1 week) [area %] | HPLC results Purity (solid state stability) ([1]; Onset) [area %] | pH of filtrate ([2]; FaSSIF, 1 hour, 37 °C) | pH of filtrate ([2]; FaSSIF, 4 hours, 37 °C) | pH of filtrate ([2]; FaSSIF, 24 hours, 37 °C) | pH of filtrate ([2]; FeSSIF, 1 hour, 37 °C) | pH of filtrate ([2]; FeSSIF, 4 hours, 37 °C) | pH of filtrate ([2]; FeSSIF, 24 hours, 37 °C) | pH of filtrate ([2]; H2O, 1 hour, 37 °C) | pH of filtrate ([2]; H2O, 4 hours, 37 °C) | pH of filtrate ([2]; H2O, 24 hours, 37 °C) | pH of filtrate ([2]; SGF, 1 hour, 37 °C) | pH of filtrate ([2]; SGF, 4 hours, 37 °C) | pH of filtrate ([2]; SGF, 24 hours, 37 °C) | SMILES | other results |
| --- | --- | --- | --- | --- | --- | --- | --- | --- | --- | --- | --- | --- | --- | --- | --- | --- |
|  |  |  | 4.5 | 3.9 | 3.6 | 4.8 | 4.6 | 4.5 | 3.5 | 3.5 | 3.3 | 2.5 | 2.6 | 2.4 | Cc1nc(N[C@H](C)c2cccc(S(F)(F)(F)(F)F)c2)c2cn(C3(CF)CC3)c(=O)cc2n1 [Crystal form B of citrate salt] |  |
| 99.00 | 99.01 | 98.92 |  |  |  |  |  |  |  |  |  |  |  |  | Cc1nc(N[C@H](C)c2cccc(S(F)(F)(F)(F)F)c2)c2cn(C3(CF)CC3)c(=O)cc2n1 [Crystal form B citrate salt] |  |
